Test results: patent US20250064795A1, “METHODS OF TREATING CORONAVIRUS DISEASE AND COMPOUNDS FOR SAME” (Board of Supervisors of Louisiana State University and …, priority 2021, published 2025)
Like-named read-outs stand apart in the source and are kept apart here.

Key:
[1] = in vitro; conditions: human
[2] = conventional Topotecan therapy; cited from earlier work
[3] = test system: SARS-CoV-2 (USA-WA1/2020 Isolate); experiment: In vitro inhibition of SARS-CoV-2 in Calu-3 cells (immunostaining assay); type: cell-based
[4] = cited from earlier work

Row | SMILES | CC50 [1] [nM] | dose-limiting toxicity [2] | inhibition of SARS-CoV-2 ([3]; Calu-3 cells, FIG. 1) | IC50 ([3]; Severe acute respiratory syndrome coronavirus 2, Calu-3 cells, 24 h pretreatment, MOI 0.005, 48 h after inoculation, FIG. 1, read-out: IC50 of inhibition of SARS-CoV-2) [nM] | IC50 ([3]; Severe acute respiratory syndrome coronavirus 2, replicate experiments, Calu-3 cells, FIG. 3 and FIG. 4B, read-out: IC50) [nM] | plasma elimination half-life ([4]; in vivo) [h] | time of peak plasma concentrations ([4]; oral administration) [h] | IC50 ([3]; Severe acute respiratory syndrome coronavirus 2, Calu-3) [nM]
1 | CC[C@@]1(O)C(=O)OCc2c1cc1n(c2=O)Cc2cc3c(CN(C)C)c(O)ccc3nc2-1 [Topotecan] | 169 | bone marrow suppression | Complete or near complete inhibition | 35 | 9.36 | 2 to 3 | 1 to 2 | –
2 | CCC(CC)COC(=O)[C@H](C)N[P@](=O)(OC[C@H]1O[C@@](C#N)(c2ccc3c(N)ncnn23)[C@H](O)[C@@H]1O)Oc1ccccc1 [Remdesivir] | – | – | – | – | – | – | – | 116
